Reference: ChEMBL document CHEMBL5352436, “Triterpenoid pyrazines and pyridines - Synthesis, cytotoxicity, mechanism of action, preparation of prodrugs” (Eur J Med Chem, 2022)
The source made the active and inactive calls. The calls are words filed in the database; no cut-off is given here.

Legend:
A549 = experiment: Cytotoxicity against human A549 cells assessed as reduction in cell viability incubated for 72 hrs by MTS assay; assay type: functional, cell-based; conditions: A549, 72 h
CEM-DNR = experiment: Cytotoxicity against human CEM-DNR cells assessed as reduction in cell viability incubated for 72 hrs by MTS assay; assay type: functional, cell-based
CCRF-CEM [1] = experiment: Cytotoxicity against human CCRF-CEM cells assessed as reduction in cell viability incubated for 72 hrs by MTS assay; assay type: functional, cell-based
[2] = Cytotoxicity against human BJ cells assessed as reduction in cell viability incubated for 72 hrs by MTS assay; assay type: toxicity, cell-based
[3] = Cytotoxicity against human K562-Tax cells assessed as reduction in cell viability incubated for 72 hrs by MTS assay; assay type: functional, cell-based
U2OS = experiment: Cytotoxicity against human U2OS cells assessed as reduction in cell viability incubated for 72 hrs by MTS assay; assay type: functional, cell-based
[4] = Drug localization in human CCRF-CEM cells assessed as MT-CO2 signal at 10 uM incubated for 4 hrs by click reaction analysis; assay type: ADME, cell-based
[5] = Cytotoxicity against human HCT116-p53-null cells assessed as reduction in cell viability incubated for 72 hrs by MTS assay; assay type: functional, cell-based
K562 = experiment: Cytotoxicity against human K562 cells assessed as reduction in cell viability incubated for 72 hrs by MTS assay; assay type: functional, cell-based; conditions: K562, 72 h
HCT-116 [6] = experiment: Cytotoxicity against human HCT-116 cells assessed as reduction in cell viability incubated for 72 hrs by MTS assay; assay type: functional, cell-based; conditions: HCT-116, 72 h
[7] = Cytotoxicity against human MRC5 cells assessed as reduction in cell viability incubated for 72 hrs by MTS assay; assay type: toxicity, cell-based
CCRF-CEM [8] = experiment: Induction of apoptosis in human CCRF-CEM cells assessed as necrotic cells at 1 time IC50 incubated for 24 hrs by Annexin V and propidium iodide staining based flow cytometry analysis (reference value: 0.0%); assay type: functional
HeLa = experiment: Antitumor activity in human HeLa cells cultured as spheroids assessed as inhibition of spheroid opening at 1 uM incubated for 3 days; assay type: functional, cell-based; conditions: time 3.0 day
CCRF-CEM [9] = experiment: Induction of apoptosis in human CCRF-CEM cells assessed as early apoptotic cells at 5 times IC50 incubated for 24 hrs by Annexin V and propidium iodide staining based flow cytometry analysis […]; assay type: functional
CCRF-CEM [10] = experiment: Induction of apoptosis in human CCRF-CEM cells assessed as late apoptotic cells at 5 times IC50 incubated for 24 hrs by Annexin V and propidium iodide staining based flow cytometry analysis […]; assay type: functional
CCRF-CEM [11] = experiment: Induction of mitochondrial damage in human CCRF-CEM cells at >= 10 uM incubated for 4 hrs by light microscopic analysis; assay type: functional, cell-based
CCRF-CEM [12] = experiment: Induction of apoptosis in human CCRF-CEM cells assessed as viable cells at 1 time IC50 incubated for 24 hrs by Annexin V and propidium iodide staining based flow cytometry analysis […]; assay type: functional
CCRF-CEM [13] = experiment: Induction of apoptosis in human CCRF-CEM cells assessed as necrotic cells at 5 times IC50 incubated for 24 hrs by Annexin V and propidium iodide staining based flow cytometry analysis […]; assay type: functional
CCRF-CEM [14] = experiment: Induction of apoptosis in human CCRF-CEM cells assessed as viable cells at 5 times IC50 incubated for 24 hrs by Annexin V and propidium iodide staining based flow cytometry analysis […]; assay type: functional
CCRF-CEM [15] = experiment: Induction of apoptosis in human CCRF-CEM cells assessed as early apoptotic cells at 1 time IC50 incubated for 24 hrs by Annexin V and propidium iodide staining based flow cytometry analysis (reference value: […]); assay type: functional
CCRF-CEM [16] = experiment: Induction of mitochondrial changes in human CCRF-CEM cells at 10 uM incubated for 4 hrs by electron microscopic analysis; assay type: functional, cell-based
HCT-116 [17] = experiment: Antitumor activity in human HCT-116 cells cultured as spheroids assessed as inhibition of cell growth at 10 uM incubated for 3 days; assay type: functional; parameters: scale not given: the % may be the effect or the level left; conditions: time 3 day
CCRF-CEM [18] = experiment: Induction of apoptosis in human CCRF-CEM cells assessed as late apoptotic cells at 1 time IC50 incubated for 24 hrs by Annexin V and propidium iodide staining based flow cytometry analysis (reference value: […]); assay type: functional
[19] = Chemical stability in PBS buffer at pH 7.4 assessed as compound remaining measured at 60 mins by RF-MS analysis; assay type: physicochemical; conditions: read-out: Stability
[20] = Chemical stability in PBS buffer at pH 7.4 assessed as compound remaining measured at 30 mins by RF-MS analysis; assay type: physicochemical; conditions: read-out: Stability
[21] = Plasma protein binding in human at 10 uM by rapid equilibrium dialysis based RF-MS analysis; assay type: ADME, cell-free; conditions: read-out: PB (converted)
[22] = Apparent permeability of the compound in MDCK-MDR1 cells assessed as drug recovery at 10 uM incubated for 1 hr by RF-MS analysis; assay type: ADME, cell-based, Canis lupus familiaris; conditions: dog, read-out: Drug recovery
CCRF-CEM [23] = experiment: Induction of apoptosis in human CCRF-CEM cells assessed as accumulation of Bax protein expression at 1 to 5 times IC50 incubated for 24 hrs by Western blot analysis; assay type: functional, cell-based
[24] = Stability in human plasma assessed as compound remaining at 2 uM measured at 15 mins by RF-MS analysis; assay type: ADME, cell-free; conditions: read-out: Stability
[25] = Stability in human plasma assessed as compound remaining at 2 uM measured at 60 mins by RF-MS analysis; assay type: ADME, cell-free; conditions: read-out: Stability
[26] = Efflux ratio of apparent permeability across basolateral to apical side over apical to basolateral side in MDCK-MDR1 cells; assay type: ADME, cell-based, Canis lupus familiaris; conditions: dog
[27] = Stability in human liver microsomes assessed as compound remaining at 2 uM measured at 15 mins in presence of NADPH by RF-MS analysis; assay type: ADME, Microsome; conditions: read-out: Stability
[28] = Stability in human liver microsomes assessed as compound remaining at 2 uM measured at 60 mins in presence of NADPH by RF-MS analysis; assay type: ADME, Microsome; conditions: read-out: Stability
CCRF-CEM [29] = experiment: Induction of apoptosis in human CCRF-CEM cells assessed as PARP cleavage at 1 to 5 times IC50 incubated for 24 hrs by Western blot analysis; assay type: functional, cell-based
CCRF-CEM [30] = experiment: Induction of apoptosis in human CCRF-CEM cells assessed as accumulation of Bid protein expression at 1 to 5 times IC50 incubated for 24 hrs by Western blot analysis; assay type: functional, cell-based
CCRF-CEM [31] = experiment: Induction of apoptosis in human CCRF-CEM cells assessed as decrease in c-Myc expression at 1 to 5 times IC50 incubated for 24 hrs by Western blot analysis; assay type: functional, cell-based
[32] = Stability in human liver microsomes assessed as compound remaining at 2 uM measured at 30 mins in presence of NADPH by RF-MS analysis; assay type: ADME, Microsome; conditions: read-out: Stability
CCRF-CEM [33] = experiment: Induction of apoptosis in human CCRF-CEM cells assessed as increase in Noxa expression at 1 to 5 times IC50 incubated for 24 hrs by Western blot analysis; assay type: functional, cell-based
[34] = Chemical stability in PBS buffer at pH 7.4 assessed as compound remaining measured at 15 mins by RF-MS analysis; assay type: physicochemical; conditions: read-out: Stability
[35] = Stability in human plasma assessed as compound remaining at 2 uM measured at 30 mins by RF-MS analysis; assay type: ADME, cell-free; conditions: read-out: Stability
[36] = Chemical stability in PBS buffer at pH 7.4 assessed as compound remaining measured at 120 mins by RF-MS analysis; assay type: physicochemical; conditions: read-out: Stability
[37] = Stability in human plasma assessed as compound remaining at 2 uM measured at 120 mins by RF-MS analysis; assay type: ADME, cell-free; conditions: read-out: Stability
[38] = Apparent permeability of the compound in MDCK-MDR1 cells at 10 uM incubated for 1 hr by RF-MS analysis; assay type: ADME, cell-based, Canis lupus familiaris; conditions: dog

Structure (SMILES)	IC50 (A549) [nM]	IC50 (CEM-DNR) [nM]	IC50 (CCRF-CEM [1]) [nM]	IC50 at 72 h [2] [nM]	IC50 [3] [nM]	IC50 (U2OS) [nM]	IC50 [5] [nM]	IC50 (K562) [nM]	IC50 (HCT-116 [6]) [nM]	IC50 at 72 h [7] [nM]	Activity (CCRF-CEM [8]) [%]	Activity (HeLa)	Activity (CCRF-CEM [9]) [%]	Activity (CCRF-CEM [10]) [%]	Activity (CCRF-CEM [12]) [%]	Activity (CCRF-CEM [13]) [%]	Activity (CCRF-CEM [14]) [%]	Activity (CCRF-CEM [15]) [%]	Activity (HCT-116 [17]) [%]	Activity (CCRF-CEM [18]) [%]	further results
C#CCOC(=O)[C@]12CC[C@@H](C(=C)C=O)[C@@H]1[C@H]1CC[C@@H]3[C@@]4(C)Cc5nccnc5C(C)(C)[C@@H]4CC[C@@]3(C)[C@]1(C)CC2	1700	1700	430	7200	1400	1400	6300	1600	7000	6600											Drug uptake [4]: Active
C=C(C)[C@@H]1CC[C@]2(C(=O)O)CC[C@]3(C)[C@H](CC[C@@H]4[C@@]5(C)Cc6nccnc6C(C)(C)[C@@H]5CC[C@]43C)[C@@H]12											3.7	Active	0.8	2.6	92.3	4.5	92	1.7	100	2.2	Activity (CCRF-CEM [11]): inactive; Activity (CCRF-CEM [16]): Active
C=C(C=O)[C@@H]1CC[C@]2(C(=O)OCc3cn([C@H]4O[C@H](COC(C)=O)[C@@H](OC(C)=O)[C@H](OC(C)=O)[C@H]4OC(C)=O)nn3)CC[C@]3(C)[C@H](CC[C@@H]4[C@@]5(C)Cc6nccnc6C(C)(C)[C@@H]5CC[C@]43C)[C@@H]12 (stereo in doubt)	1800	1500	750	2300	2700	1600	1700	1200	1500	1800	4.1	Active	56	37.7	18.1	1	5.3	53.8	100	23.9	remaining at 1 h [19]: 87.8%; remaining at 0.5 h [20]: 91.1%; fraction unbound at 10 µM [21]: 0.0017; recovery at 1 h, 10 µM [22]: 77.6%; Activity (CCRF-CEM [23]): Active; remaining at 0.25 h, 2 µM [24]: 104%; remaining at 1 h, 2 µM [25]: 88.7%; efflux ratio [26]: 4.49; remaining at 0.25 h, 2 µM [27]: 96.8%; remaining at 1 h, 2 µM [28]: 58.9%; Activity (CCRF-CEM [29]): Active; Activity (CCRF-CEM [30]): Active; Activity (CCRF-CEM [31]): Active; remaining at 0.5 h, 2 µM [32]: 95.7%; Activity (CCRF-CEM [33]): Active; remaining at 0.25 h [34]: 99.9%; remaining at 0.5 h, 2 µM [35]: 97.2%; remaining at 2 h [36]: 85.2%; remaining at 2 h, 2 µM [37]: 88.5%; Papp at 1 h, 10 µM [38]: 0.12 ×10⁻⁶ cm/s
C#CCOC(=O)[C@]12CC[C@@H](C(=C)C)[C@@H]1[C@H]1CC[C@@H]3[C@@]4(C)Cc5nccnc5C(C)(C)[C@@H]4CC[C@@]3(C)[C@]1(C)CC2	> 50000	50000	45000	> 50000	> 50000	> 50000	> 50000	> 50000	> 50000	> 50000											Drug uptake [4]: Not Active
C=C(C=O)[C@@H]1CC[C@]2(C(=O)O)CC[C@]3(C)[C@H](CC[C@@H]4[C@@]5(C)Cc6nccnc6C(C)(C)[C@@H]5CC[C@]43C)[C@@H]12											5.8	Active	54	42.8	85.1	0.5	2.7	5.5	100	3.6	Activity (CCRF-CEM [23]): Active; Activity (CCRF-CEM [11]): inactive; Activity (CCRF-CEM [29]): Active; Activity (CCRF-CEM [30]): Active; Activity (CCRF-CEM [31]): Active; Activity (CCRF-CEM [33]): Active
